From patent US11578310B2, “Method for producing CD4/CD8 double-positive T cells” (Kyoto University, priority 2016, dated 2023)

Test system: hematopoietic progenitor cells induced from iPS cells or ES cells
Experiment: Induction of CD4/CD8 double-positive T cells from hematopoietic progenitor cells induced from pluripotent stem cells (flow cytometry)
Assay type: cell-based, human
Details: TKT3v 1-7 line; medium containing SB203580 alone or SDF-1α alone vs neither; FIG. 5
Procedure: On an ultralow-adhesion-treated 6-well plate (CORNING: #3471). TkT3V1-7. Ffl-01, Ffl-14, or KhES-3 was plated at 3×10^5 to 6×10^5 cells/well (Day 0), and the cells were cultured under hypoxic conditions (5% O2) for five days in EB medium (StemPro34 supplemented with 10 μg/ml human insulin, 5.5 μg/ml human transferrin, 5 ng/ml sodium selenite, 2 mM L-glutamine, […] α-monothioglycerol, and 50 μg/ml ascorbic acid) supplemented with 10 ng/ml BMP4, 5 ng/ml bFGF, 15 ng/ml VEGF, and 2 μM SB431542 (Day 5).
Subsequently, 50 ng/ml SCF, 30 ng/ml TPO, and 10 ng/ml Flt3L were added, and additional culture was performed for 5 to 9 days (up to Day 14).

4-(4-fluorophenyl)-2-(4-methylsulfonylphenyl)-5-(4-pyridyl)-1H-imidazole [SB203580]
induction of CD4/CD8 double-positive T cells, each agent used alone: can be produced even when each of these was used alone

SDF-1α
induction of CD4/CD8 double-positive T cells, each agent used alone: can be produced even when each of these was used alone
